Measured values published in patent publication US5565424A, “Superactive VIP antagonists” (Ramot - University Authority for Applied Research and …, priority 1994, dated 1996).
Non-standard residues stand in square brackets, D forms with d. Residues, ends and D or L forms follow the SMILES beside them. Nle = CCCC[C@H](N)C(=O)O

How the values were obtained:
[1] = tested on: VIP receptors on neuroblastoma (NMB) cells; test: VIP binding and displacement on intact neuroblastoma (NMB) cells; design: species or system human
Procedure: Alternatively, the VIP was iodinated according to the procedure described by Werner, et al. (Biochem. Biophys. Res. Commun., 133:228-232 (1985)). […] Experiments were repeated at least three times, each containing triplicates, error bars represent the standard error. Cells were grown for 24 hours (circles) and 48 hours (triangles). […] The binding parameters were determined by ACCUFIT program, Lundon-2 competition analysis (LUNDON software Inc., Chargin Falls, Ohio, U.S.A.). […] The calculated Bmax was 6×10^-14 moles/mg and 1.5×10^-14 moles/mg for cells grown for 24 hours as compared to cells grown for 48 hours, respectively.

[2] = tested on: neuroblastoma (NMB) cells; test: Thymidine incorporation into neuroblastoma (NMB) cells; assay type: cell-based, human; conditions: 24 hours incubation, one day after seeding; read-out: EC50, stimulation of thymidine incorporation into NMB cells
NCI-H226 = conditions: for NSCLC colony formation (colonies): NCI-H226, 1 μM addition, control 43.1 ± 5.7
[3] = tested on: non-small cell lung cancer (NSCLC) cell lines; test: NSCLC colony formation / cell growth, statements across cell lines
[4] = tested on: c-fos mRNA in NCIH810 cells; test: c-fos mRNA assay; assay type: cell-based
Procedure: In addition, the ability of VIP and the S-hybrid VIP antagonist to stimulate c-fos mRNA was examined; c-fos mRNA is a marker for cancer cell proliferation. […] This is true regardless of whether the VIP antagonist is co-administered with VIP or added by itself (See, Table IV, infra).
^a NCIH810 cells were treated with the peptide and the cfos mRNA
determined after 1 hour.
For the c-fos experiments, SCLC cells were cultured with SIT medium containing 0.5% fetal bovine serum. After 4 hours, the cells were treated with stimuli such as 10 nM BN for 60 min. Total RNA was isolated using the guanidinium isothiocyanate (GIT) method. Ten μg of denatured RNA was separated in a 0.66M formaldehyde 1% agarose gel as previously described. The gel was treated with ethidium bromide tp assess RNA integrity. The RNA was blotted onto a nitrocellulose membrane overnight and the membrane hybridized with a c-fos probe labelled with ^32 P-dCTP using a Bethesda Research Laboratories random priming kit. The membrane was exposed to Kodax XAR-2 film at […] for 1 day and the autoradiogram developed. The autoradiogram were analyzed using a Molecular Dynamics densitometer.

NCI-H1299 = conditions: for NSCLC colony formation (colonies): NCI-H1299, 1 μM addition, control 29 ± 3.1
NCI-H727 = conditions: for NSCLC colony formation (colonies): NCI-H727, 1 μM addition, control 35.2 ± 2.3
[5] = tested on: neuroblastoma (NMB) cells; test: Neuroblastoma (NMB) cell division by cell counts; assay type: cell-based, human
Procedure: FIG. 5. […] Neuroblastoma (NMB) cells have been grown in culture using RPMI-1640 medium supplemented with 10% fetal calf serum and gentamicin (100 μl of 40 mg/ml stock solution per 100 mL medium) in a humidified atmosphere of 5% CO2, 95% air. Cells were harvested with Puck's saline containing 0.25% trypsin and 0.02M EDTA every four days, centrifuged and seeded in 60 mm diameter tissue culture dishes (CORNING) at a density of 0.6-0.7×10^6 cells per dish.
For mitogenic assays, human NM cells were seeded in 35 mm diameter tissue culture dishes (CORNING) at a density of 0.2×10^6 cells per dish in RPMI-1640 medium plus 10% fetal calf serum. […] Cell counts were performed with a hemocytometer, using trypan blue staining for viability, on the second day (24 hours) after the VIP treatment. Results shown on the graph are cell/dish×1000. Error bars represent the standard error. Three-six replicates were counted for each data point and experiments were repeated three independent times.

[6] = tested on: VIP-stimulated cAMP formation in astrocytes; test: VIP-stimulated cAMP formation in cortical astrocyte cultures; assay type: cell-based, rat; conditions: 1 μM VIP, FIG. 2
Procedure: FIG. 2. VIP-stimulated cAMP formation was inhibited in the presence of the family of VIP antagonists. Cortical astrocyte cultures were incubated for 10 min with 1 μm VIP and cAMP accumulation was determined by radioimmunoassay (Gozes, et al., J. Pharmacol. & Exp. Therap., 257:959 (1991)). Increasing concentrations of the antagonists were placed in the astrocyte cultures 5 minutes prior to the addition of VIP. Astrocytes were maintained in 35 mm tissue culture dishes with 0.3 mg protein per dish. Each value is the mean of 8-10 determinations from 4 experiments. […] The error bar is the SEM.
In view of the foregoing, astroglia cells were utilized to compare the effects the VIP antagonists of the present invention have on VIP-stimulated cAMP formation. For cAMP determinations, the general protocols involve either the measurement of adenylate cyclase activity or, the use of radioimmunoassays for cAMP which utilize a cAMP determination kit from NEN (New England Nuclear, Boston, Mass.)36 previously described by Gozes, et al. (J. Pharmacol. Exp. Therap., 257:959 (1991)). An HCl (0.05M) extract neutralizecl with 0.5M NaOH may be utilized for the tests.
Rat astrocytes were maintained in cell culture as described above. The accumulation of cAMP was measured by radio-immunoassay (NEN kit, New England Nuclear) from cold trichloro acetic acid extracts (Evans et al., supra, 1984). […]

[7] = tested on: Sprague-Dawley rat pups, locomotive activity rhythm; test: Circadian motor activity rhythms after chronic injection; assay type: in vivo; conditions: 5 μg/day subcutaneous, 28 days, newborn rat pups
Procedure: FIGS. 4(A-J). VIP antagonism disturbed the biological clock via a cAMP-mediated mechanism. Newborn rat pups (Sprague-Dawley, locally bread, Yoxheam, Israel) were chronically injected with VIP analogues (5 μg of each analogue/50 μl/day, subcutaneous), for 28 consecutive days. The vehicle of injection was either 0.01M acetic acid or 15% dimethylsulfoxide (for the lipophilic peptides). On day 21, the animals were placed each one in a separate cage and their locomotive activity was continuously measured. The pattern of locomotive activity was measured using an animal monitoring system with an infrared detector for 7 days (A, C, E, G, I). The spectral periods of rhythm in the activity data was detected by a special statistical method because of the short computer sampling period. […]
Animals were each placed in a separate cage and motor activity was continuously recorded for 6-9 days, using an animal monitoring system with an infrared detector. Spectral analysis of motor activity rhythms is then determined by the fitting of different cosine curves to the activity data (see, Mattes, et al., Chronobiology Int'l, 8:460 (1991)).

[8] = tested on: cAMP (low affinity) VIP receptor on astroglia cells; test: Displacement of 125I-VIP from astroglia cells; conditions: central nervous system, FIGS. 2 and 3
[9] = tested on: dissociated mouse spinal cord cultures (neurons); test: Neuronal survival in dissociated spinal cord cultures; assay type: cell-based

CC[C@H](C)[C@H](NC(=O)[C@H](CO)NC(=O)[C@H](CC(N)=O)NC(=O)[C@H](CC(C)C)NC(=O)[C@H](Cc1ccc(O)cc1)NC(=O)[C@H](CCCCN)NC(=O)[C@H](CCCCN)NC(=O)[C@@H](NC(=O)[C@H](C)NC(=O)[C@H](CCSC)NC(=O)[C@H](CCC(N)=O)NC(=O)[C@H](CCCCN)NC(=O)[C@H](CCCNC(=N)N)NC(=O)[C@H](CC(C)C)NC(=O)[C@H](CCCNC(=N)N)NC(=O)[C@@H](NC(=O)[C@H](Cc1ccc(O)cc1)NC(=O)[C@H](CC(N)=O)NC(=O)[C@H](CC(=O)O)NC(=O)[C@@H](NC(=O)[C@H](Cc1ccccc1)NC(=O)[C@@H](NC(=O)[C@H](C)NC(=O)[C@H](CC(=O)O)NC(=O)[C@H](CO)NC(=O)[C@@H](N)Cc1c[nH]cn1)C(C)C)[C@@H](C)O)[C@@H](C)O)C(C)C)C(=O)N[C@@H](CC(C)C)C(=O)N[C@@H](CC(N)=O)C(N)=O [VIP, Vasoactive intestinal polypeptide]
fold higher affinity in younger cells (24 hrs) compared with older cells (48 hrs) [1]: about 10 fold | EC50 [2]: 0.5 µM | NSCLC colony formation (colonies) (NCI-H226): 87.4 ± 4.8 | stimulation of NSCLC colony formation in agar ([3]; index of cell growth): 2-3 fold | c-fos mRNA ([4]; 10 nM, NCIH810 cells, after 1 hour, NONE = 1.0): 5.6 | effect on c-fos mRNA (in words) ([4]; antagonist co-administered with VIP or added by itself): stimulates c-los mRNA | NSCLC colony formation (colonies) (NCI-H1299): 55.8 ± 19.8 | NSCLC colony formation (colonies) (NCI-H727): 115 ± 22.7 | EC50 ([5]; 24 hour VIP treatment, added one day after seeding, read-out: EC50, stimulation of NMB cell division by cell counts): 0.5 µM | mitosis when added 48 hours after plating ([5]; additional 24 hours incubation): did not stimulate mitosis | concentration at peak of mitogenic activity ([5]; cell counts and thymidine incorporation, decreased thereafter): 1 µM

CCCC[C@H](NC(=O)[C@H](CCC(N)=O)NC(=O)[C@H](CCCCN)NC(=O)[C@H](CCCNC(=N)N)NC(=O)[C@H](CC(C)C)NC(=O)[C@H](CCCNC(=N)N)NC(=O)[C@@H](NC(=O)[C@H](Cc1ccc(O)cc1)NC(=O)[C@H](CC(N)=O)NC(=O)[C@H](CC(=O)O)NC(=O)[C@@H](NC(=O)[C@H](Cc1ccc(O)cc1)NC(=O)[C@@H]1CCCN1C(=O)[C@H](CCCNC(=N)N)NC(=O)[C@H](CCCNC(=N)N)NC(=O)[C@@H]1CCCN1C(=O)[C@@H](N)CCCCN)[C@@H](C)O)[C@@H](C)O)C(=O)N[C@@H](C)C(=O)N[C@H](C(=O)N[C@@H](CCCCN)C(=O)N[C@@H](CCCCN)C(=O)N[C@@H](Cc1ccc(O)cc1)C(=O)N[C@@H](CC(C)C)C(=O)N[C@@H](CC(N)=O)C(=O)N[C@@H](CO)C(=O)N[C@H](C(=O)N[C@@H](CC(C)C)C(=O)N[C@@H](CC(N)=O)C(N)=O)[C@@H](C)CC)C(C)C [NL-hybrid VIP antagonist] (H-KPRRPYTDNYTRLRKQ[Nle]AVKKYLNSILN-NH2)
inhibition of VIP-induced cAMP formation (in words) [6]: effectively inhibits VIP-induced cAMP formation | inhibition of cell growth (NCI-H226): 92% | NSCLC colony formation (colonies) (NCI-H226): 3.5 ± 2.5 | effect on 24 hours periodicity of activity rhythm [7]: abolished this 24 hours periodicity | overall activity of the animals [7]: overall increase in the activity | potency relative to the hybrid antagonist in inhibiting tumor cell growth ([3]; two out of three NSCLC cell lines): ten-fold more potent | affinity for the cAMP (low affinity) VIP receptor (in words) [8]: has an affinity for both | fold more potent than the hybrid VIP antagonist at inducing neuronal cell death [9]: 10 fold | affinity for the VIP-neuronal survival associated receptor (in words) ([9]; central nervous system, FIG. 1): has an affinity for both | concentration of maximal effect on neuronal cell death ([9]; spinal cord cultures, FIG. 1): 10^-10 M | inhibition of cell growth (NCI-H1299): 100% | NSCLC colony formation (colonies) (NCI-H1299): 0 | inhibition of cell growth (NCI-H727): 88% | NSCLC colony formation (colonies) (NCI-H727): 4.2 ± 3.1
